{"source": "paper PMC6934184", "about": "“Selective DNA-PKcs inhibition extends the therapeutic index of localized radiotherapy and chemotherapy” (The Journal of Clinical Investigation, 2019)", "target": "T1, ROCK1 (Homo sapiens, UniProt Q13464)", "T1 construct": "purchased Thermo Fisher Scientific (Life Technologies) SelectScreen", "T1 sequence (Q13464 whole entry)": "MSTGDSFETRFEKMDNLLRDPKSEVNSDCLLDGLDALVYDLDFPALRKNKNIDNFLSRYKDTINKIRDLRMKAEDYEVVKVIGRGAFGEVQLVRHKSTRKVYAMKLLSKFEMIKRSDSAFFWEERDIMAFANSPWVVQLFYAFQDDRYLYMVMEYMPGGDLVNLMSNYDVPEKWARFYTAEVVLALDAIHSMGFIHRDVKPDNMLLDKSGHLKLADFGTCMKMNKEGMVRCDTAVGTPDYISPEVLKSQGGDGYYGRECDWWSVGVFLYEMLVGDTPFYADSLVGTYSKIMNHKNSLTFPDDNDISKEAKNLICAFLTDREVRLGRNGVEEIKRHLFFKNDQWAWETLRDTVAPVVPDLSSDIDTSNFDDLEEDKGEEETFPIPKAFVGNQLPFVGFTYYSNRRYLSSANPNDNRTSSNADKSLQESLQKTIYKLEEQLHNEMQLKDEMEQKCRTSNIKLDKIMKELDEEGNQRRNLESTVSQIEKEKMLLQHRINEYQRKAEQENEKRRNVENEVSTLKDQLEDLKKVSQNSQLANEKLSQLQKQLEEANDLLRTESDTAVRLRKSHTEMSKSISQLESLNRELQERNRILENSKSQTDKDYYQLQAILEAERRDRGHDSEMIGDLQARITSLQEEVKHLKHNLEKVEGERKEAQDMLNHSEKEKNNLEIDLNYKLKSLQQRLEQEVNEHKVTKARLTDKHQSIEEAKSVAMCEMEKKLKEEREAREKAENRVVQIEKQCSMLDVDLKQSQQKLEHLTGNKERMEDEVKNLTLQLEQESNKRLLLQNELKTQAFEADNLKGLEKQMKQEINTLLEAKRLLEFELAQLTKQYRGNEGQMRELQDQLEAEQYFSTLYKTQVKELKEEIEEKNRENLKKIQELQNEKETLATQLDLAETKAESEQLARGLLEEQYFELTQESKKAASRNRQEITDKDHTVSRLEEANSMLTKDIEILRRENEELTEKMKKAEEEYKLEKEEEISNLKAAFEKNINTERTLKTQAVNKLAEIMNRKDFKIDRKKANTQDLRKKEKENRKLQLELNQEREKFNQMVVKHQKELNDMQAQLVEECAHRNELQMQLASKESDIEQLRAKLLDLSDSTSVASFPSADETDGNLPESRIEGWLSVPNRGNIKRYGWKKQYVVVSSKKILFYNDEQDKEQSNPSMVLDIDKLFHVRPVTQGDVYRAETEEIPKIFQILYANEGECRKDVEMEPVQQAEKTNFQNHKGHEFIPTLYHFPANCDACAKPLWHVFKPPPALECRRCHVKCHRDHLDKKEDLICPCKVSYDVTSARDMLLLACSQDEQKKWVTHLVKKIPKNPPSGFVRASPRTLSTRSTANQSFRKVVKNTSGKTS", "experiment": "SelectScreen Z'LYTE", "type": "biochemical", "how_it_was_run": "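NU5455 was profiled across the SelectScreen Broad panel of kinase activity and binding assays. Z'LYTE reactions such as CSF1R ran at apparent Km ATP, while the Adapta CAMK1 assay used ATP listed as 10. Values are given as percent.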"}
{"smiles": "CN(C(=O)CN1CCOCC1)c1ccc2sc3c(-c4cccc5c(=O)cc(N6CC7CCC(C6)O7)oc45)cccc3c2c1", "note": "[NU5455]", "values": [{"measurement": "inhibition at 1 µM", "value": -9.5, "unit": "%"}]}
